The compounds below were run on MV4-11 cells (assay: Cell proliferation assay MV4;11 (CellTiter-Glo, 72 hours)). Conditions: Homo sapiens; MV4;11 leukemia cell line, 72 hours; read-out: MV4; 11 IC50.
Type: cell-based
Outline: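 Luminescent CellTiter-Glo readout after 72 h culture, 37 °C, 5% CO2, expressed relative to vehicle-treated wells, with maximal inhibition taken at the highest dose. MLL-rearranged MV4-11 leukemia cells; final compound range 0.632 to 2000 nM in eight steps.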
Work on `CCN(C(=O)c1cc(F)ccc1Oc1cncnc1N1CC2(CCN(C[C@@H]3CC[C@@H](NC(=O)NCC4CC4)CO3)CC2)C1)C(C)C` [Example 42, 2-((4-(7-(((2S,5R)-5-(3-(Cyclopropylmethyl)ureido)tetrahydro-2H-pyran-2-yl)methyl)-2,7-diazaspiro[3.5]nonan-2-yl)pyrimidin-5-yl)oxy)-N-ethyl-5-fluoro-N-isopropylbenzamide] yielded an IC50 of 100 to 1000 nM. `CCS(=O)(=O)N[C@@H]1CC[C@@H](CN2CCC3(CC2)CN(c2ncncc2Oc2ccc(F)cc2C(=O)N(CCC#N)C(C)C)C3)OC1` [Example 43, N-(2-Cyanoethyl)-2-((4-(7-(((2S,5R)-5-(ethylsulfonamido)tetrahydro-2H-pyran-2-yl)methyl)-2,7-diazaspiro[3.5]nonan-2-yl)pyrimidin-5-yl)oxy)-5-fluoro-N-isopropylbenzamide] showed an IC50 of 100 to 1000 nM. `CCS(=O)(=O)N[C@@H]1CC[C@@H](CN2CCC3(CC2)CN(c2ncncc2Oc2ccc(F)cc2C(=O)N(C(C)C)C2CC(F)(F)C2)C3)OC1` [Example 44, N-(3,3-Difluorocyclobutyl)-2-((4-(7-(((2S,5R)-5-(ethylsulfonamido)tetrahydro-2H-pyran-2-yl)methyl)-2,7-diazaspiro[3.5]nonan-2-yl)pyrimidin-5-yl)oxy)-5-fluoro-N-isopropylbenzamide] was tested, and the IC50 was < 100 nM. In the case of `CCN(C(=O)c1cc(F)ccc1Oc1cncnc1N1CC2(CCN(C[C@@H]3CC[C@@H](NS(=O)(=O)c4ccccc4)CO3)CC2)C1)C(C)C` [Example 45, N-Ethyl-5-fluoro-N-isopropyl-2-((4-(7-(((2S,5R)-5-(phenylsulfonamido)tetrahydro-2H-pyran-2-yl)methyl)-2,7-diazaspiro[3.5]nonan-2-yl)pyrimidin-5-yl)oxy)benzamide], the IC50 is reported as < 100 nM. For `CCS(=O)(=O)N[C@@H]1CC[C@@H](CN2CCC3(CC2)CN(c2ncncc2Oc2ccc(F)cc2C(=O)N(C(C)C)[C@@H]2CCOC2)C3)OC1` [Example 46, 2-((4-(7-(((2S,5R)-5-(Ethylsulfonamido)tetrahydro-2H-pyran-2-yl)methyl)-2,7-diazaspiro[3.5]nonan-2-yl)pyrimidin-5-yl)oxy)-5-fluoro-N-isopropyl-N-((R)-tetrahydrofuran-3-yl)benzamide], the IC50 was < 100 nM. For `CC(C)N(CC(F)F)C(=O)c1cc(F)ccc1Oc1cncnc1N1CC2(CCN(C[C@@H]3CC[C@@H](NS(=O)(=O)C4CC4)CO3)CC2)C1` [Example 47, 2-((4-(7-(((2S,5R)-5-(Cyclopropanesulfonamido)tetrahydro-2H-pyran-2-yl)methyl)-2,7-diazaspiro[3.5]nonan-2-yl)pyrimidin-5-yl)oxy)-N-(2,2-difluoroethyl)-5-fluoro-N-isopropylbenzamide], the IC50 was < 100 nM. For `CCS(=O)(=O)N[C@@H]1CC[C@@H](CN2CCC3(CC2)CN(c2ncncc2Oc2ccc(F)cc2C(=O)N(C(C)C)C2COC2)C3)OC1` [Example 48, 2-((4-(7-(((2S,5R)-5-(Ethylsulfonamido)tetrahydro-2H-pyran-2-yl)methyl)-2,7-diazaspiro[3.5]nonan-2-yl)pyrimidin-5-yl)oxy)-5-fluoro-N-isopropyl-N-(oxetan-3-yl)benzamide], the IC50 was < 100 nM. In the case of `CCN(C(=O)c1cc(F)ccc1Oc1cncnc1N1CC2(CCN(C[C@@H]3CC[C@@H](NS(=O)(=O)N(C)C)CO3)CC2)C1)C(C)C` [Example 49, 2-((4-(7-(((2S,5R)-5-((N,N-Dimethylsulfamoyl)amino)tetrahydro-2H-pyran-2-yl)methyl)-2,7-diazaspiro[3.5]nonan-2-yl)pyrimidin-5-yl)oxy)-N-ethyl-5-fluoro-N-isopropylbenzamide], the IC50 is reported as < 100 nM. In the case of `COCCN(C(=O)c1cc(F)ccc1Oc1cncnc1N1CC2(CCN(C[C@@H]3CC[C@@H](NS(=O)(=O)C4CC4)CO3)CC2)C1)C(C)C` [Example 51, 2-((4-(7-(((2S,5R)-5-(Cyclopropanesulfonamido)tetrahydro-2H-pyran-2-yl)methyl)-2,7-diazaspiro[3.5]nonan-2-yl)pyrimidin-5-yl)oxy)-5-fluoro-N-isopropyl-N-(2-methoxyethyl)benzamide], the IC50 is reported as < 100 nM. For `CCN(C(=O)c1cc(F)ccc1Oc1cncnc1N1CC2(CCN(C[C@@H]3CC[C@@H](NS(=O)(=O)c4ccc(C)cc4)CO3)CC2)C1)C(C)C` [Example 55, N-Ethyl-5-fluoro-N-isopropyl-2-((4-(7-(((2S,5R)-5-((4-methylphenyl)sulfonamido)tetrahydro-2H-pyran-2-yl)methyl)-2,7-diazaspiro[3.5]nonan-2-yl)pyrimidin-5-yl)oxy)benzamide], the IC50 was < 100 nM. In the case of `CCN(C(=O)c1cc(F)ccc1Oc1cncnc1N1CC2(CCN(C[C@@H]3CC[C@@H](NS(=O)(=O)c4ccccc4C)CO3)CC2)C1)C(C)C` [Example 56, N-Ethyl-5-fluoro-N-isopropyl-2-((4-(7-(((2S,5R)-5-((2-methylphenyl)sulfonamido)tetrahydro-2H-pyran-2-yl)methyl)-2,7-diazaspiro[3.5]nonan-2-yl)pyrimidin-5-yl)oxy)benzamide], the IC50 is reported as < 100 nM. For `CCN(C(=O)c1cc(F)ccc1Oc1cncnc1N1CC2(CCN(C[C@@H]3CC[C@@H](NS(=O)(=O)c4cccc(Cl)c4)CO3)CC2)C1)C(C)C` [Example 57, 2-((4-(7-(((2S,5R)-5-((3-Chlorophenyl)sulfonamido)tetrahydro-2H-pyran-2-yl)methyl)-2,7-diazaspiro[3.5]nonan-2-yl)pyrimidin-5-yl)oxy)-N-ethyl-5-fluoro-N-isopropylbenzamide], the IC50 was < 100 nM. In the case of `CCN(C(=O)c1cc(F)ccc1Oc1cncnc1N1CC2(CCN(C[C@@H]3CC[C@@H](NS(=O)(=O)c4ccccn4)CO3)CC2)C1)C(C)C` [Example 58, N-ethyl-5-fluoro-N-isopropyl-2-((4-(7-(((2S,5R)-5-(pyridine-2-sulfonamido)tetrahydro-2H-pyran-2-yl)methyl)-2,7-diazaspiro[3.5]nonan-2-yl)pyrimidin-5-yl)oxy)benzamide], the IC50 is reported as < 100 nM. In the case of `CCN(C(=O)c1cc(F)ccc1Oc1cncnc1N1CC2(CCN(C[C@@H]3CC[C@@H](NS(=O)(=O)c4ccccc4Cl)CO3)CC2)C1)C(C)C` [Example 59, 2-((4-(7-(((2S,5R)-5-((2-Chlorophenyl)sulfonamido)tetrahydro-2H-pyran-2-yl)methyl)-2,7-diazaspiro[3.5]nonan-2-yl)pyrimidin-5-yl)oxy)-N-ethyl-5-fluoro-N-isopropylbenzamide], the IC50 is reported as < 100 nM. In the case of `CCN(C(=O)c1cc(F)ccc1Oc1cncnc1N1CC2(CCN(C[C@@H]3CC[C@@H](NS(=O)(=O)c4cccc(C)c4)CO3)CC2)C1)C(C)C` [Example 60, N-ethyl-5-fluoro-N-isopropyl-2-((4-(7-(((2S,5R)-5-((3-methylphenyl)sulfonamido)tetrahydro-2H-pyran-2-yl)methyl)-2,7-diazaspiro[3.5]nonan-2-yl)pyrimidin-5-yl)oxy)benzamide], the IC50 is reported as < 100 nM. `CCN(C(=O)c1cc(F)ccc1Oc1cncnc1N1CC2(CCN(C[C@@H]3CC[C@@H](NS(=O)(=O)c4ccc(Cl)cc4)CO3)CC2)C1)C(C)C` [Example 61, 2-((4-(7-(((2S,5R)-5-((4-Chlorophenyl)sulfonamido)tetrahydro-2H-pyran-2-yl)methyl)-2,7-diazaspiro[3.5]nonan-2-yl)pyrimidin-5-yl)oxy)-N-ethyl-5-fluoro-N-isopropylbenzamide] was tested, and the IC50 was < 100 nM. With `CCN(C(=O)c1cc(F)ccc1Oc1cncnc1N1CC2(CCN(C[C@@H]3CC[C@@H](NS(=O)(=O)c4ccc(OC)cc4)CO3)CC2)C1)C(C)C` [Example 62, N-Ethyl-5-fluoro-N-isopropyl-2-((4-(7-(((2S,5R)-5-((4-methoxyphenyl)sulfonamido)tetrahydro-2H-pyran-2-yl)methyl)-2,7-diazaspiro[3.5]nonan-2-yl)pyrimidin-5-yl)oxy)benzamide] the IC50 was < 100 nM. In the case of `CCN(C(=O)c1cc(F)ccc1Oc1cncnc1N1CC2(CCN(C[C@@H]3CC[C@@H](NS(=O)(=O)c4cccnc4)CO3)CC2)C1)C(C)C` [Example 63, N-Ethyl-5-fluoro-N-isopropyl-2-((4-(7-(((2S,5R)-5-(pyridine-3-sulfonamido)tetrahydro-2H-pyran-2-yl)methyl)-2,7-diazaspiro[3.5]nonan-2-yl)pyrimidin-5-yl)oxy)benzamide], the IC50 is reported as < 100 nM. With `CCN(C(=O)c1cc(F)ccc1Oc1cncnc1N1CC2(CCN(C[C@@H]3CC[C@@H](NS(=O)(=O)N4CCOCC4)CO3)CC2)C1)C(C)C` [Example 64, N-Ethyl-5-fluoro-N-isopropyl-2-((4-(7-(((2S,5R)-5-(morpholine-4-sulfonamido)tetrahydro-2H-pyran-2-yl)methyl)-2,7-diazaspiro[3.5]nonan-2-yl)pyrimidin-5-yl)oxy)benzamide] the IC50 was < 100 nM. In the case of `CCN(C(=O)c1cc(F)ccc1Oc1cncnc1N1CC2(CCN(C[C@@H]3CC[C@@H](NS(=O)(=O)c4ccccc4OC)CO3)CC2)C1)C(C)C` [Example 65, N-Ethyl-5-fluoro-N-isopropyl-2-((4-(7-(((2S,5R)-5-((2-methoxyphenyl)sulfonamido)tetrahydro-2H-pyran-2-yl)methyl)-2,7-diazaspiro[3.5]nonan-2-yl)pyrimidin-5-yl)oxy)benzamide], the IC50 is reported as < 100 nM. `CCN(C(=O)c1cc(F)ccc1Oc1cncnc1N1CC2(CCN(C[C@@H]3CC[C@@H](NS(=O)(=O)c4cccc(OC)c4)CO3)CC2)C1)C(C)C` [Example 66, N-Ethyl-5-fluoro-N-isopropyl-2-((4-(7-(((2S,5R)-5-((3-methoxyphenyl)sulfonamido)tetrahydro-2H-pyran-2-yl)methyl)-2,7-diazaspiro[3.5]nonan-2-yl)pyrimidin-5-yl)oxy)benzamide] was tested, and the IC50 was < 100 nM. In the case of `CCN(C(=O)c1cc(F)ccc1Oc1cncnc1N1CC2(CCN(C[C@@H]3CC[C@@H](NS(=O)(=O)N4CCC4)CO3)CC2)C1)C(C)C` [Example 69, 2-((4-(7-(((2S,5R)-5-(Azetidine-1-sulfonamido)tetrahydro-2H-pyran-2-yl)methyl)-2,7-diazaspiro[3.5]nonan-2-yl)pyrimidin-5-yl)oxy)-N-ethyl-5-fluoro-N-isopropylbenzamide], the IC50 is reported as < 100 nM.
